Assay results published in patent US4596819A, “Modified tripeptides” (Warner-Lambert Company, priority 1984, dated 1986).

Columns and labels:
learning and memory = conditions: intranasal administration, young unimpaired human subjects, compared with placebo treatment; cited from earlier work
[1] = test system: recall of learned information; conditions: two patients given bilateral electroconvulsive shock therapy (ECT); cited from earlier work
[2] = test system: amnesia produced by electroconvulsive shock; assay: reversal of electroconvulsive shock-induced amnesia, rats; assay type: in vivo
[3] = test system: amnesia produced by electroconvulsive shock; assay: reversal of electroconvulsive shock-induced amnesia, mice; assay type: in vivo
Method: The modified peptides in accordance with this invention are effective in treating senility, in enhancing memory, or of reversing the effects of electroconvulsive shock-induced amnesia. The effectiveness of these compounds is determined by the test designed to show the compound's ability to reverse amnesia produced by electroconvulsive shock. The test is more fully described in U.S. Pat. No. 4,145,347, issued Mar. 20, 1979, the disclosure of which is herein incorporated by reference. The only deviation in the present instance is that the compounds tested are administered orally, and the duration of the electroconvulsive shock administered is 1.0 seconds.

[4] = test system: amnesia produced by electroconvulsive shock; assay: as above; assay type: in vivo; remark: listed apart in the source
pole-climbing avoidance = conditions: cited from earlier work

Compound | % Amnesia Reversal Rats ([2]; dose 0.001 mg/kg IM) | Amnesia reversal rating, rats ([2]; dose 0.001 mg/kg IM) | % Amnesia Reversal Rats ([2]; dose 0.010 mg/kg IM) | Amnesia reversal rating, rats ([2]; dose 0.010 mg/kg IM) | % Amnesia Reversal Rats ([2]; dose 0.100 mg/kg IM) | Amnesia reversal rating, rats ([2]; dose 0.100 mg/kg IM) | also measured
1-desamino-8-D-arginine vasopressin [DDAVP] |  |  |  |  |  |  | effect on learning and memory (learning and memory): increases in learning and memory; effect on recall of learned information [1]: Positive effects on recall of learned information
CC(C)C[C@@H](CSCC(=O)O)NC(=O)[C@@H]1CCC(=O)N1C(=O)OCc1ccccc1 (relative stereo) [Z3-KetoProLeu[CH2 S]Gly, [S-(R*,R*)]-Phenylmethyl 5-oxo-2-[[[1-[[(carboxymethyl)thio]methyl]-3-methylbutyl]amino]carbonyl]-1-pyrrolidinecarboxylate] | 33% | C (25 to 39 percent amnesia reversal (borderline activity=C)) | 0% | N (0 to 25 percent amnesia reversal (inactive=N)) | 0% | N (0 to 25 percent amnesia reversal (inactive=N)) | 
CC(C)C[C@@H](CNCC(N)=O)NC(=O)[C@@H]1CCCN1C(=O)OCc1ccccc1.Cl (relative stereo) [ZProLeu[CH2 NH]GlyNH2, [S-(R*,R*)]-2-[[[1-[[(2-Amino-2-oxoethyl)-amino]methyl]-3-methylbutyl]amino]-carbonyl]-1-pyrrolidinecarboxylic acid, phenylmethyl ester, monohydrochloride] | 43% | A (40 percent or more amnesia reversal (active=A)) | 43% | A (40 percent or more amnesia reversal (active=A)) | 43% | A (40 percent or more amnesia reversal (active=A)) | 
CC(C)C[C@H](NC[C@@H]1CCCN1C(=O)OCc1ccccc1)C(=O)NCC(N)=O (relative stereo) [ZPro[CH2 NH]LeuGlyNH2, [S-(R*,R*)]-2-[[[[1-[(2-Amino-2-oxoethyl)amino]carbonyl]-3-methylbutyl]amino]methyl]-1-pyrrolidinecarboxylic acid, phenylmethyl ester] | 11% | N (0 to 25 percent amnesia reversal (inactive=N)) | 0% | N (0 to 25 percent amnesia reversal (inactive=N)) | 0% | N (0 to 25 percent amnesia reversal (inactive=N)) | % Amnesia Reversal Mice ([3]; dose 1 mg/kg PO): 85%; Amnesia reversal rating, mice ([3]; dose 1 mg/kg PO): A (40 percent or more amnesia reversal (active=A)); % Amnesia Reversal Mice ([3]; dose 10 mg/kg PO): 67%; Amnesia reversal rating, mice ([3]; dose 10 mg/kg PO): A (40 percent or more amnesia reversal (active=A)); % Amnesia Reversal Mice ([3]; dose 100 mg/kg PO): 57%; Amnesia reversal rating, mice ([3]; dose 100 mg/kg PO): A (40 percent or more amnesia reversal (active=A))
Cc1ccc(S(=O)(=O)N2CCCC2CN[C@@H](CC(C)C)C(=O)NCC(N)=O)cc1 (stereo partly drawn) [TosPro[CH2 NH]DLeuGlyNH2, (S)-N^2-[[1-[(4-Methylphenyl)sulfonyl]-2-pyrrolidinyl]methyl]-D-Leucylglycinamide] | 0% | N (0 to 25 percent amnesia reversal (inactive=N)) | 0% | N (0 to 25 percent amnesia reversal (inactive=N)) | 34% | C (25 to 39 percent amnesia reversal (borderline activity=C)) | 
CC(C)CC(CSCC(=O)O)NC(=O)C1CC(=O)CN1C(=O)OCc1ccccc1 (stereo not drawn) [Z4-Keto ProLeu[CH2 S]Gly, [S-(R*,R*)]-Phenylmethyl 2-[[[1-[[(carboxymethyl)thio]methyl]-3-methylbutyl]amino]carbonyl]-4-oxo-1-pyrrolidinecarboxylate] | 17% | N (0 to 25 percent amnesia reversal (inactive=N)) | 50% | A (40 percent or more amnesia reversal (active=A)) | 83% | A (40 percent or more amnesia reversal (active=A)) | 
CC(C)CC(CSCC(=O)O)NC(=O)C1CCCN1C(=O)OCc1ccccc1 (stereo not drawn) [ZProLeu[CH2 S]Gly, [2S-(R*,R*)]-Phenylmethyl2-[[[1-[[(carboxymethyl)thio]methyl]-3-methylbutyl]amino]carbonyl]-1-pyrrolidinecarboxylate] | 57% | N (0 to 25 percent amnesia reversal (inactive=N)) | 57% | A (40 percent or more amnesia reversal (active=A)) | 14% | N (0 to 25 percent amnesia reversal (inactive=N)) | % Amnesia Reversal Mice ([4]; dose 0.1 mg/kg IM): 69%; Amnesia reversal rating, mice ([4]; dose 0.1 mg/kg IM): A (40 percent or more amnesia reversal (active=A)); % Amnesia Reversal Mice ([4]; dose 1.0 mg/kg IM): 77%; Amnesia reversal rating, mice ([4]; dose 1.0 mg/kg IM): A (40 percent or more amnesia reversal (active=A)); % Amnesia Reversal Mice ([4]; dose 10.0 mg/kg IM): 69%; Amnesia reversal rating, mice ([4]; dose 10.0 mg/kg IM): A (40 percent or more amnesia reversal (active=A))
NC(=O)COCC(Cc1ccccc1)NC(=O)[C@@H]1CCCN1C(=O)OCc1ccccc1 (stereo partly drawn) [ZProPhe[CH2 O]GlyNH2, (2S)-Phenylmethyl 2[[[1-[(2-amino-2-oxoethoxy)methyl]-2-phenylethyl]amino]carbonyl]-1-pyrrolidinecarboxylate] | 11% | N (0 to 25 percent amnesia reversal (inactive=N)) | 0% | N (0 to 25 percent amnesia reversal (inactive=N)) | 0% | N (0 to 25 percent amnesia reversal (inactive=N)) | % Amnesia Reversal Mice ([3]; dose 1 mg/kg PO): 20%; Amnesia reversal rating, mice ([3]; dose 1 mg/kg PO): N (0 to 25 percent amnesia reversal (inactive=N)); % Amnesia Reversal Mice ([3]; dose 10 mg/kg PO): 59%; Amnesia reversal rating, mice ([3]; dose 10 mg/kg PO): A (40 percent or more amnesia reversal (active=A)); % Amnesia Reversal Mice ([3]; dose 100 mg/kg PO): 71%; Amnesia reversal rating, mice ([3]; dose 100 mg/kg PO): A (40 percent or more amnesia reversal (active=A))
NC(=O)CC[C@@H]1NC(=O)[C@H](Cc2ccccc2)NC(=O)[C@H](Cc2ccc(O)cc2)NC(=O)[C@@H](N)CSSC[C@@H](C(=O)N2CCC[C@H]2C(=O)N[C@@H](CCCN=C(N)N)C(=O)NCC(N)=O)NC(=O)[C@H](CC(N)=O)NC1=O [vasopressin] |  |  |  |  |  |  | effect on learning and memory (learning and memory): increases in learning and memory
Pro-Arg-Gly-NH2 |  |  |  |  |  |  | activity in the rat pole-climbing avoidance test (pole-climbing avoidance): active
